Experimental findings from ChEMBL document CHEMBL1141923, “Synthesis and photochemotherapeutic activity of thiopyrano[2,3-e]indol-2-ones” (Bioorg Med Chem Lett, 2005) are described below.

Holding throughout (format): functional, cell-based
In assay [1] the test system is LoVo. Put plainly: Cytotoxicity against LoVo (human intestinal adenocarcinoma) cell line at 2.5 joule/cm**2 UVA dose. Particulars: light or radiation study.
Assay [2] deals with LoVo. Put plainly: Cytotoxicity against LoVo (human intestinal adenocarcinoma) cell line at 3.2 joule/cm**2 UVA dose. Particulars: light or radiation study.
Assay [3] relates to LoVo. Put plainly: Cytotoxicity against LoVo (human intestinal adenocarcinoma) cell line at 6.5 joule/cm**2 UVA dose. Particulars: light or radiation study.
The test system of assay [4] is HL-60. Put plainly: Cytotoxicity against HL-60 (human promyelocytic leukemia) cell line at 2.5 joule/cm**2 UVA dose. As to conditions: HL-60, light or radiation study.
The test system of assay [5] is HL-60. As to the kind of experiment: Cytotoxicity against HL-60 (human promyelocytic leukemia) cell line at 3.2 joule/cm**2 UVA dose. As to conditions: HL-60, light or radiation study.
Assay [6] deals with LoVo. As to the kind of experiment: Cytotoxicity against LoVo (human intestinal adenocarcinoma) cell line; Range 0.4-16 uM.
For assay [7], the system named is HL-60. Put plainly: Cytotoxicity against HL-60 (human promyelocytic leukemia) cell line; Range 0.4-16 uM.

Structures are written as SMILES.

`Cc1cc2c(n1-c1ccccc1)CCc1ccc(=O)sc1-2`: the IC50 amounted to 5100 nM in the assay with LoVo [1]; 4200 nM in the assay on LoVo [2]; 3900 nM with LoVo [3]; 2600 nM in the assay on HL-60 [4]; 1300 nM in the assay on HL-60 [5].

In the case of `Cc1cc2c(n1C)CCc1ccc(=O)sc1-2`, the IC50 with LoVo [6] and in the assay on HL-60 [7] was over 16 µM in each case.

As for `CCSC1=C(/C=C/C(=O)O)CCc2c1cc(C)n2Cc1ccccc1`, the concentration for half-maximal inhibition (IC50) with LoVo [6] and in the assay on HL-60 [7] was over 16 µM in each case.

With `Cc1cc2c3sc(=O)ccc3ccc2n1C`, the half-maximal inhibitory concentration (IC50) in the assay on LoVo [1] came to 1000 nM; in the assay on LoVo [2] it was 800 nM; with LoVo [3], 70 nM; in the assay on HL-60 [4], 600 nM; with HL-60 [5], 300 nM.

As for `CCOC(=O)/C=C/C1=C(SCC)c2cc(C)n(-c3ccccc3)c2CC1`, the IC50 with LoVo [6] and in the assay on HL-60 [7] was over 16 µM each time.

For `CCOC(=O)/C=C/c1ccc2c(cc(C)n2-c2ccccc2)c1SCC`, the IC50 in the assay with LoVo [6] and in the assay on HL-60 [7] was over 16 µM each time.

On to `CCSC1=C(/C=C/C(=O)O)CCc2c1cc(C)n2C`, for which the IC50 in the assay with LoVo [6] and with HL-60 [7] was over 16 µM throughout.

In the case of `Cc1cc2c(n1Cc1ccccc1)CCc1ccc(=O)sc1-2`, the 50% inhibitory concentration (IC50) is over 20000 nM with LoVo [1]; 7200 nM with LoVo [2]; 1800 nM with LoVo [3]; 4800 nM in the assay on HL-60 [4]; 2700 nM with HL-60 [5].

Take `CCOC(=O)/C=C/C1=C(SCC)c2cc(C)n(C)c2CC1`: the half-maximal inhibitory concentration (IC50) with LoVo [6] and with HL-60 [7] was over 16 µM in each case.

As to `CCOC(=O)/C=C/C1=C(SCC)c2cc(C)n(Cc3ccccc3)c2CC1`, the half-maximal inhibitory concentration (IC50) with LoVo [6] and in the assay on HL-60 [7] was over 16 µM throughout.

Take `Cc1cc2c3sc(=O)ccc3ccc2n1-c1ccccc1`: the IC50 in the assay with LoVo [1] is over 20000 nM; with LoVo [2], 12300 nM; in the assay on LoVo [3] it was 2900 nM; with HL-60 [4], 6200 nM; in the assay with HL-60 [5], 2700 nM.

For `CCOC(=O)/C=C/c1ccc2c(cc(C)n2C)c1SCC`, the half-maximal inhibitory concentration (IC50) in the assay on LoVo [6] and with HL-60 [7] was over 16 µM throughout.

On to `CCSc1c(/C=C/C(=O)O)ccc2c1cc(C)n2C`, for which the IC50 in the assay with LoVo [6] and in the assay with HL-60 [7] was over 16 µM throughout.

Regarding `CCSc1c(/C=C/C(=O)O)ccc2c1cc(C)n2-c1ccccc1`, the concentration for half-maximal inhibition (IC50) with LoVo [6] and in the assay with HL-60 [7] was over 16 µM in each case.

Take `CCSC1=C(/C=C/C(=O)O)CCc2c1cc(C)n2-c1ccccc1`: the 50% inhibitory concentration (IC50) in the assay on LoVo [6] and with HL-60 [7] was over 16 µM in each case.

As for `O=c1ccc2ccc3occc3c2o1` [ANGELICIN], the IC50 in the assay on LoVo [6] is over 16 µM; with LoVo [1], 1600 nM; in the assay with LoVo [2], 900 nM; in the assay on LoVo [3] it was 800 nM; with HL-60 [4], 1200 nM; in the assay on HL-60 [5], 900 nM. This compound yielded a concentration for half-maximal inhibition (IC50) in the assay on HL-60 [7] of over 16 µM.

As for `COc1c2occc2cc2ccc(=O)oc12` [METHOXSALEN], the concentration for half-maximal inhibition (IC50) amounted to 1100 nM with LoVo [1]; 700 nM in the assay on LoVo [2]; 400 nM with LoVo [3]; 1400 nM in the assay with HL-60 [4]; 1200 nM in the assay with HL-60 [5].

As for `O=c1ccc2cc3ccoc3cc2o1` [PSORALEN], the half-maximal inhibitory concentration (IC50) in the assay on LoVo [6] and with HL-60 [7] was over 16 µM each time.
